One assay relates to RINm5F cells. As to the kind of experiment: tert-butyl hydroperoxide (tBHP) exposure of RINm5F cells. The class given is cell-based, rat. Conditions: Compound 1 supplementation. On the procedure: Islets were isolated from heterozygous human islet amyloid polypeptide transgenic (hIAPP^+/−)FVB/N mice (Jackson Laboratory, Bar Harbor, ME, USA), […] mice (Orientbio, Sungnam, Korea), and cynomolgus monkeys (Macaca fascicularis; Orientbio, Sungnam, Korea). For additional in vitro studies, rat insulinoma cells (RINm5F cells) were treated with or without Compound 1 during culture under tert-butyl hydroperoxide (tBHP) exposure or serum deprivation condition. RINm5F cells were suspended in DMEM medium (Gibco, Grand Island, NY, USA) containing 100 IU/mL penicillin and 100 μg/mL streptomycin, and cultured at 37° C. in a fully humidified 5% CO2 atmosphere. All experimental protocols in this study were approved by the Institutional Animal Care and Use Committee (IACUC) of Samsung Biomedical Research Institute.

For assay [1], the system named is TNF-α, IL-1β, IL-6, c-JUN and HMGB1. In words: Real-time qRT-PCR transcript levels during serum-deprived ex vivo culture. The class given is cell-based, mouse. The conditions noted are these: after 1 and 3 days of ex vivo culture, BSA+Compound 1 vs BSA group; FIGS. 6C, 6D. How it is done: Purified hIAPP^+/− FVB/N and C57BL/6J mouse were suspended in RPMI 1640 (Gibco, Grand Island, NY, USA) containing 100 IU/mL penicillin and 100 μg/mL streptomycin, and cultured at 37° C. in a fully humidified 5% CO2 atmosphere. Purified NHP islets were suspended in CMRL 1066 medium (Coming Life Sciences, Tewksbury, MA; catalog number 99-663-CV) containing 100 IU/mL penicillin and 100 μg/mL streptomycin, and cultured at 37° C. in a fully humidified 5% CO2 atmosphere. […]
(§1) Harvested islets were treated with 500 μL Trizol (Life Technologies, Grand Island, NY, USA), and then 100 μL of chloroform was added. […] RNA purity was assessed by NanoDrop (Thermo Scientific, Wilmington, DE, USA) and agarose gel electrophoresis. […] Total RNA was reverse transcribed to quantify the expression of genes using the SuperScript™ II reverse transcription system (Life Technologies) according to the manufacturer's protocol.
(§2) Real-time qRT-PCR was performed using gene-specific primer pairs (Table 1). […] To quantify the expression level of genes, real-time PCR was performed using a SYBR premix kit (Takara Bio Inc., Tokyo, Japan) and an ABI Prism 7000 (Applied Biosystems, Foster City, CA, USA) according to the manufacturers' protocols.
Background: Real-time PCR tracks product formation cycle by cycle.

Assay [2] has as its system c-Jun N-terminal kinases, HMGB1, IL-1β, IL-6, TNF-α. As to the kind of experiment: Real-time qRT-PCR of c-Jun, HMGB1 and proinflammatory cytokines after islet isolation. The conditions noted are these: after isolation with 20 μM Compound 1, vs non-treated group; FIG. 1F. It is filed as cell-based, mouse. How it is done: Mouse islets were isolated from 10- to 12-week-old hIAPP^+/− and C57BL/6 mice as described previously. Briefly, 0.8 mg/mL of collagenase P (Roche, Indianapolis, IN, USA) in Hank's buffered saline solution (HBSS, Sigma-Aldrich, St. Louis, MO, USA) with or without 20 μM Compound 1 were infused into the common bile duct for mouse pancreas digestion. Islets were purified from the digested pancreas using a Ficoll (Biochrom, Berlin, Germany) gradient and washed several times with 1 xHBSS. Isolated islets were cultured while free-floating in 10 mL of RPMI 1640 (Gibco, Grand Island, NY, USA). […]
as §1, §2

As for `O=S1(=O)CCN(Cc2cc(NC3CCOCC3)c3[nH]c(-c4ccccc4)cc3c2)CC1` [Compound 1], the “cellular toxicity (LDH release)” value with RINm5F cells (FIG. 4A) is “markedly reduced”. The ROS contents entry with RINm5F cells (FIG. 4B) is given as “markedly reduced”. In addition, the “transcript levels of TNF-α, IL-1β, IL-6, c-JUN and HMGB1” value in assay [1] is listed as “significantly attenuated”. In assay [2], the “transcriptional expression of c-Jun N-terminal kinases, HMGB1, IL-1β, IL-6 and TNF-α” value is on record as “significantly decreased”.

(Values after US12677825B2, “Composition for protecting islet transplantation” (LG CHEM, LTD., priority 2020, dated 2026).)
